# From patent US12077503B2, “Substituted cyclic amides and their use as herbicides” (FMC CORPORATION, priority 2015, dated 2024)
# Assays:
# Assay type in all cases: in vivo
# [1] = test system: Kochia (Kochia scoparia); assay: Test A preemergence; details: Preemergence; for Plant response rating, Kochia: 125 g ai/ha, visual injury after approximately 10 d, 0 to 100 scale where 0 is no effect and 100 is complete control; for Kochia plant response rating (0 to 100 scale, 0 is no effect, 100 is complete control): 500 g ai/ha, visual injury approx. 10 d
# From the text: (§1) Seeds of plant species selected from barnyardgrass (Echinochloa crus-galli), Kochia (Kochia scoparia), ragweed (common ragweed, Ambrosia elatior), ryegrass, Italian (Italian ryegrass, Lolium multiflorum), crabgrass, large (Digitaria sanguinalis), giant foxtail (Setaria faberii), green foxtail (Setaria viridis), morningglory (Ipomoea spp.), pigweed (Amaranthus retroflexus), velvetleaf (Abutilon theophrasti), wheat (Triticum aestivum), and corn (Zea mays) were planted into a blend of loam soil and sand and treated preemergence with a directed soil spray using test chemicals formulated in anon-phytotoxic solvent mixture which included a surfactant.
# (§2) At the same time, plants selected from these crop and weed species and also blackgrass (Alopecurus myosuroides), and Galium (catchweed bedstraw, Galium aparine) were planted in pots containing the same blend of loam soil and sand and treated with postemergence applications of test chemicals formulated in the same manner. Plants ranged in height from 2 to 10 cm and were in the one- to two-leaf stage for the postemergence treatment. Treated plants and untreated controls were maintained in a greenhouse for approximately 10 d, after which time all treated plants were compared to untreated controls and visually evaluated for injury. Plant response ratings, summarized in Table A, are based on a 0 to 100 scale where 0 is no effect and 100 is complete control. A dash (-) response means no test result.
# [2] = test system: barnyardgrass (Echinochloa crus-galli); assay: Test A preemergence; details: Preemergence; for Plant response rating, Barnyardgrass: 125 g ai/ha, visual injury after approximately 10 d, 0 to 100 scale where 0 is no effect and 100 is complete control; for Barnyardgrass plant response rating (0 to 100 scale, 0 is no effect, 100 is complete control): 500 g ai/ha, visual injury approx. 10 d
# From the text: as §1, §2
# [3] = test system: giant foxtail (Setaria faberii); assay: Test A preemergence; details: Preemergence; for Plant response rating, Foxtail, Giant: 125 g ai/ha, visual injury after approximately 10 d, 0 to 100 scale where 0 is no effect and 100 is complete control; for Foxtail, Giant plant response rating (0 to 100 scale, 0 is no effect, 100 is complete control): 500 g ai/ha, visual injury approx. 10 d
# From the text: as §1, §2
# [4] = test system: pigweed (Amaranthus retroflexus); assay: Test A preemergence; details: Preemergence; for Plant response rating, Pigweed: 125 g ai/ha, visual injury after approximately 10 d, 0 to 100 scale where 0 is no effect and 100 is complete control; for Pigweed plant response rating (0 to 100 scale, 0 is no effect, 100 is complete control): 500 g ai/ha, visual injury approx. 10 d
# From the text: as §1, §2
# [5] = test system: ragweed (common ragweed, Ambrosia elatior); assay: Test A preemergence; details: Preemergence; for Plant response rating, Ragweed: 125 g ai/ha, visual injury after approximately 10 d, 0 to 100 scale where 0 is no effect and 100 is complete control; for Ragweed plant response rating (0 to 100 scale, 0 is no effect, 100 is complete control): 500 g ai/ha, visual injury approx. 10 d
# From the text: as §1, §2
# [6] = test system: ryegrass, Italian (Italian ryegrass, Lolium multiflorum); assay: Test A preemergence; details: Preemergence; for Plant response rating, Ryegrass, Italian: 125 g ai/ha, visual injury after approximately 10 d, 0 to 100 scale where 0 is no effect and 100 is complete control; for Ryegrass, Italian plant response rating (0 to 100 scale, 0 is no effect, 100 is complete control): 500 g ai/ha, visual injury approx. 10 d
# From the text: as §1, §2
# [7] = test system: Galium (catchweed bedstraw, Galium aparine); assay: Test A postemergence
# From the text: as §1, §2
# [8] = test system: Kochia (Kochia scoparia); assay: Test A postemergence
# From the text: as §1, §2
# [9] = test system: barnyardgrass (Echinochloa crus-galli); assay: Test A postemergence
# From the text: as §1, §2
# [10] = test system: blackgrass (Alopecurus myosuroides); assay: Test A postemergence
# From the text: as §1, §2
# [11] = test system: corn (Zea mays); assay: Test A postemergence
# From the text: as §1, §2
# [12] = test system: giant foxtail (Setaria faberii); assay: Test A postemergence
# From the text: as §1, §2
# [13] = test system: pigweed (Amaranthus retroflexus); assay: Test A postemergence
# From the text: as §1, §2
# [14] = test system: ragweed (common ragweed, Ambrosia elatior); assay: Test A postemergence
# From the text: as §1, §2
# [15] = test system: ryegrass, Italian (Italian ryegrass, Lolium multiflorum); assay: Test A postemergence
# From the text: as §1, §2
# [16] = test system: wheat (Triticum aestivum); assay: Test A postemergence
# From the text: as §1, §2
# [17] = 125 g ai/ha, postemergence, visual rating after approx. 10 d, 0 to 100 scale (0 no effect, 100 complete control)
# [18] = Postemergence, 500 g ai/ha, 0 to 100 scale where 0 is no effect and 100 is complete control
# [19] = 125 g ai/ha, postemergence, visual injury rating on 0 to 100 scale (0 no effect, 100 complete control), approx. 10 d
Compound,"Plant response rating, Kochia [1]","Kochia plant response rating (0 to 100 scale, 0 is no effect, 100 is complete control) [1]","Plant response rating, Barnyardgrass [2]","Barnyardgrass plant response rating (0 to 100 scale, 0 is no effect, 100 is complete control) [2]","Plant response rating, Foxtail, Giant [3]","Foxtail, Giant plant response rating (0 to 100 scale, 0 is no effect, 100 is complete control) [3]","Plant response rating, Pigweed [4]","Pigweed plant response rating (0 to 100 scale, 0 is no effect, 100 is complete control) [4]","Plant response rating, Ragweed [5]","Ragweed plant response rating (0 to 100 scale, 0 is no effect, 100 is complete control) [5]","Plant response rating, Ryegrass, Italian [6]","Ryegrass, Italian plant response rating (0 to 100 scale, 0 is no effect, 100 is complete control) [6]","Plant response rating, Galium [7, 17]","Plant response rating, Galium [7, 18]","Plant response rating, Kochia [8, 17]","Plant response rating, Kochia [8, 18]","Plant response rating, Barnyardgrass [9, 18]","Plant response rating, Blackgrass [10, 18]","Plant response rating, Corn [11, 17]","Plant response rating, Corn [11, 18]",also measured
O=C(Nc1cccc(F)c1F)C1C(=O)N(C2C=CCCC2)CC1c1cccc(C(F)(F)F)c1 (stereo not drawn) [Compound 525],0,0,30,50,30,70,0,0,0,0,0,0,0,0,0,0,40,30,0,0,"Barnyardgrass plant response rating [9, 19]: 40; Blackgrass plant response rating [10, 19]: 0; Plant response rating, Foxtail, Giant [12, 17]: 20; Plant response rating, Foxtail, Giant [12, 18]: 60; Plant response rating, Pigweed [13, 17]: 0; Plant response rating, Pigweed [13, 18]: 0; Plant response rating, Ragweed [14, 17]: 0; Plant response rating, Ragweed [14, 18]: 0; Plant response rating, Ryegrass, Italian [15, 17]: 0; Plant response rating, Ryegrass, Italian [15, 18]: 0; Plant response rating, Wheat [16, 17]: 0; Plant response rating, Wheat [16, 18]: 0"
Cc1ccc(C2CN(C)C(=O)C2C(=O)Nc2ccccc2S(C)(=O)=O)c(F)c1 (stereo not drawn) [Compound 558],70,80,90,100,90,100,30,70,50,70,0,60,30,60,20,70,100,60,0,20,"Plant response rating, Barnyardgrass [9, 17]: 80; Plant response rating, Blackgrass [10, 17]: 20; Plant response rating, Foxtail, Giant [12, 17]: 70; Plant response rating, Foxtail, Giant [12, 18]: 90; Plant response rating, Pigweed [13, 17]: 0; Plant response rating, Pigweed [13, 18]: 0; Plant response rating, Ragweed [14, 17]: 0; Plant response rating, Ragweed [14, 18]: 40; Plant response rating, Ryegrass, Italian [15, 17]: 0; Plant response rating, Ryegrass, Italian [15, 18]: 40; Plant response rating, Wheat [16, 17]: 0; Plant response rating, Wheat [16, 18]: 40"
Cc1ccc(C2CN(C)C(=O)C2C(=O)Nc2ccc(F)cc2F)c(F)c1 (stereo not drawn) [Compound 559],60,80,90,100,90,100,20,50,0,20,0,50,50,60,30,70,100,60,0,30,"Plant response rating, Barnyardgrass [9, 17]: 90; Plant response rating, Blackgrass [10, 17]: 20; Plant response rating, Foxtail, Giant [12, 17]: 90; Plant response rating, Foxtail, Giant [12, 18]: 90; Plant response rating, Pigweed [13, 17]: 0; Plant response rating, Pigweed [13, 18]: 0; Plant response rating, Ragweed [14, 17]: 0; Plant response rating, Ragweed [14, 18]: 0; Plant response rating, Ryegrass, Italian [15, 17]: 0; Plant response rating, Ryegrass, Italian [15, 18]: 30; Plant response rating, Wheat [16, 17]: 0; Plant response rating, Wheat [16, 18]: 50"
